From patent US12440568B2 (priority 2010, dated 2025)

Key:
[1] = Company studies of solubility and sustained release
[2] = test system: TCC cell cultures and human bladder tumor tissue cultures; details: cited from earlier work
[3] = test system: Cell lines of human bladder cancer; assay: MTT viability assay, MMC in DTC-2 versus MMC in saline; format: cell-based; details: cell lines exposed to MMC
Method: An in-vitro study was performed to evaluate the efficacy of DTCx materials as cytotoxic agents in the urinary bladder. […] Viability was assessed by MTT assay which tests mitochondrial function.
Cell lines of human bladder cancer were grown in RPMI 1640 medium, supplemented with FBS, 100 U/ml penicillin and […] streptomycin. […] After 2 hours of incubation, medium was replaced with fresh medium for all plates.
The plates were tested by taking out the medium and adding fresh medium containing MTT reagent. All other plates were returned to the incubator for incubation of 24, 72, 120 and 144 h. MTT assays were used to assess toxicity at all time points. The proportion of living cells was calculated by comparison to the control vehicle.
A microplate reader (EL 312e: Bio-Tek Instruments, Winooski VT) was used to evaluate the presence of […] as a color development measured by absorbance spectroscopy at 450 nm. Background optical density (OD) was subtracted from the OD readings of all samples. Cell viability was calculated by dividing the mean OD absorbance values of the treated wells by the mean OD absorbance of the control wells. All samples were tested in triplicate.
Reference is now made to FIGS. 3A-3D, which show graphs of cell viability as a function of time for various experiments.

Row | Compound | Solubility and release behaviour in the invented platform [1] | Concentration needed for similar cell kill effect when exposure reduced from 24 hours to two hours [2] | Higher cell kill with 10× longer exposure time or 10× higher concentration [3]
1 | COc1cccc2c1C(=O)c1c(O)c3c(c(O)c1C2=O)C[C@@](O)(C(=O)CO)C[C@@H]3O[C@H]1C[C@H](N)[C@H](O)[C@H](C)O1 [Doxorubicin] | solubility and first order sustained release |  | 
2 | Nc1ccn([C@@H]2O[C@H](CO)[C@@H](O)C2(F)F)c(=O)n1 [Gemcitabin] | solubility and first order sustained release |  | 
3 | CO[C@@]12[C@H](COC(N)=O)C3=C(C(=O)C(C)=C(N)C3=O)N1C[C@@H]1N[C@@H]12 [MMC, Mitomycin C] |  | ten times higher concentration | up to 30 ×
4 | O=C(O)Cc1ccccc1Nc1c(Cl)cccc1Cl [voltaren] | solubility and first order sustained release |  | 
5 | Abamectin | solubility and first order sustained release |  | 
